{"source": "patent US5480867A", "about": "“Glucagon analogs with serine replacements” (The Rockefeller University, priority 1994, dated 1996)", "key": {"[1]": {"test_system": "adenylate cyclase", "details": "for % Relative Activity: adenylate cyclase activity relative to glucagon, liver membranes, analogs measured as amides; for pA2: negative logarithm of antagonist concentration reducing response to 1 unit agonist to that of 0.5 unit, measured as amides", "protocol": "Adenylate Cyclase Assay. The assay on liver membranes was performed according to Salomon et al. [Salomon, Y., Londos, C. & rodgell, M. Anal. Biochem. 58, 541, 548 (1974)]. The released cAMP was mixed with [8-^3 H]cAMP measured with a high affinity cAMP binding protein.\nThe purpose of the adenylate cyclase assay is to measure the ability of the compound under test to stimulate the activity of adenylate cyclase. The assays are used to measure relative potency, maximum activity and inhibition index.\nThe inhibition index, defined above, was determined from adenylate cyclase assays by two different protocols.\n1. A glucagon standard curve for cAMP vs glucagon concentration was established. Then another glucagon assay curve was measured in the presence of a constant amount of antagonist.\n2. A series of tubes were set up containing an amount of glucagon which will produce 90% of maximum response. Increasing amounts of antagonist were then added and the concentration that reduced the response to 45% of maximum was determined."}, "[2]": {"molecular_target": "glucagon receptor (Homo sapiens, UniProt P47871)", "sequence (P47871 26-477, species assumed)": "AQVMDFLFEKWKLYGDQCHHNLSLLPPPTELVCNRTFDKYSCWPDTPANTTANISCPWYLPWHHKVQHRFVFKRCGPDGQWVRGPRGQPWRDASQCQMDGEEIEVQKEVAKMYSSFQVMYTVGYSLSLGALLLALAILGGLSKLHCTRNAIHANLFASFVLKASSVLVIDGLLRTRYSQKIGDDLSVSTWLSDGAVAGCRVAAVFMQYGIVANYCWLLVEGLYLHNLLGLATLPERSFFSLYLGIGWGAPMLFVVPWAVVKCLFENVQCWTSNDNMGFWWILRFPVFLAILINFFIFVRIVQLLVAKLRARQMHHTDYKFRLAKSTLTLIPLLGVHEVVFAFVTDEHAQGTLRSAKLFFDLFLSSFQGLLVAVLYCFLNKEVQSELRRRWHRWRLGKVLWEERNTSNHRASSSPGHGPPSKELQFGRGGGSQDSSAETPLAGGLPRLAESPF", "details": "background statement; cited from earlier work"}, "[3]": {"test_system": "adenylate cyclase", "details": "background statement; cited from earlier work"}}, "note": "Residues, ends and D or L forms follow the SMILES beside them. No end group written: not given here."}
{"compound": "CCCC[C@H](NC(=O)[C@H](CO)NC(=O)[C@@H](NC(=O)[C@H](Cc1ccccc1)NC(=O)[C@@H](NC(=O)CNC(=O)[C@H](CCC(N)=O)NC(=O)[C@H](CO)NC(=O)[C@@H](N)Cc1c[nH]cn1)[C@@H](C)O)[C@@H](C)O)C(=O)N[C@@H](Cc1ccc(O)cc1)C(=O)N[C@@H](C)C(=O)N[C@@H](CCCCN)C(=O)N[C@@H](Cc1ccc(O)cc1)C(=O)N[C@@H](CC(C)C)C(=O)N[C@@H](CC(=O)O)C(=O)N[C@@H](CCC(N)=O)C(=O)N[C@@H](CCCNC(=N)N)C(=O)N[C@@H](CCCNC(=N)N)C(=O)N[C@@H](C)C(=O)N[C@@H](CCC(N)=O)C(=O)N[C@@H](CC(=O)O)C(=O)N[C@@H](Cc1ccccc1)C(=O)N[C@H](C(=O)N[C@@H](CCC(N)=O)C(=O)N[C@@H](Cc1c[nH]c2ccccc12)C(=O)N[C@@H](CC(C)C)C(=O)N[C@@H](CCSC)C(=O)N[C@@H](CC(N)=O)C(=O)N[C@H](C(N)=O)[C@@H](C)O)C(C)C", "note": "[Analog 1, Nle^9 Ala^11 Gln^16] (HELM PEPTIDE1{H.S.Q.G.T.F.T.S.[Nle].Y.A.K.Y.L.D.Q.R.R.A.Q.D.F.V.Q.W.L.M.N.T.[am]}$$$$V2.0)", "values": [{"measurement": "% Relative Activity", "setting": "[1]", "result": 0.003, "unit": "%"}, {"measurement": "pA2", "setting": "[1]", "result": 8.7}]}
{"compound": "CCCC[C@H](NC(=O)[C@H](CO)NC(=O)[C@@H](NC(=O)[C@H](Cc1ccccc1)NC(=O)[C@@H](NC(=O)CNC(=O)[C@H](CCC(N)=O)NC(=O)[C@@H](N)CO)[C@@H](C)O)[C@@H](C)O)C(=O)N[C@@H](Cc1ccc(O)cc1)C(=O)N[C@@H](CO)C(=O)N[C@@H](CCCCN)C(=O)N[C@@H](Cc1ccc(O)cc1)C(=O)N[C@@H](CC(C)C)C(=O)N[C@@H](CC(=O)O)C(=O)N[C@@H](C)C(=O)N[C@@H](CCCNC(=N)N)C(=O)N[C@@H](CCCNC(=N)N)C(=O)N[C@@H](C)C(=O)N[C@@H](CCC(N)=O)C(=O)N[C@@H](CC(=O)O)C(=O)N[C@@H](Cc1ccccc1)C(=O)N[C@H](C(=O)N[C@@H](CCC(N)=O)C(=O)N[C@@H](Cc1c[nH]c2ccccc12)C(=O)N[C@@H](CC(C)C)C(=O)N[C@@H](CCSC)C(=O)N[C@@H](CC(N)=O)C(=O)N[C@H](C(N)=O)[C@@H](C)O)C(C)C", "note": "[Analog 2, des-His^1 Nle^9 Ala^16] (HELM PEPTIDE1{S.Q.G.T.F.T.S.[Nle].Y.S.K.Y.L.D.A.R.R.A.Q.D.F.V.Q.W.L.M.N.T.[am]}$$$$V2.0)", "values": [{"measurement": "% Relative Activity", "setting": "[1]", "result": 0.001, "unit": "%"}, {"measurement": "pA2", "setting": "[1]", "result": 8.4}]}
{"compound": "CCCC[C@H](NC(=O)[C@H](CO)NC(=O)[C@@H](NC(=O)[C@H](Cc1ccccc1)NC(=O)[C@@H](NC(=O)CNC(=O)[C@H](CCC(N)=O)NC(=O)[C@@H](N)CO)[C@@H](C)O)[C@@H](C)O)C(=O)N[C@@H](Cc1ccc(O)cc1)C(=O)N[C@@H](C)C(=O)N[C@@H](CCCCN)C(=O)N[C@@H](Cc1ccc(O)cc1)C(=O)N[C@@H](CC(C)C)C(=O)N[C@@H](CC(=O)O)C(=O)N[C@@H](C)C(=O)N[C@@H](CCCNC(=N)N)C(=O)N[C@@H](CCCNC(=N)N)C(=O)N[C@@H](C)C(=O)N[C@@H](CCC(N)=O)C(=O)N[C@@H](CC(=O)O)C(=O)N[C@@H](Cc1ccccc1)C(=O)N[C@H](C(=O)N[C@@H](CCC(N)=O)C(=O)N[C@@H](Cc1c[nH]c2ccccc12)C(=O)N[C@@H](CC(C)C)C(=O)N[C@@H](CCSC)C(=O)N[C@@H](CC(N)=O)C(=O)N[C@H](C(N)=O)[C@@H](C)O)C(C)C", "note": "[Analog 3, des-His^1 Nle^9 Ala^11 Ala^16] (HELM PEPTIDE1{S.Q.G.T.F.T.S.[Nle].Y.A.K.Y.L.D.A.R.R.A.Q.D.F.V.Q.W.L.M.N.T.[am]}$$$$V2.0)", "values": [{"measurement": "% Relative Activity", "setting": "[1]", "result": 0.0043, "unit": "%"}, {"measurement": "pA2", "setting": "[1]", "result": 8.4}]}
{"compound": "CCCC[C@H](NC(=O)[C@H](CO)NC(=O)[C@@H](NC(=O)[C@H](Cc1ccccc1)NC(=O)[C@@H](NC(=O)CNC(=O)[C@H](CCC(N)=O)NC(=O)[C@@H](N)CO)[C@@H](C)O)[C@@H](C)O)C(=O)N[C@@H](Cc1ccc(O)cc1)C(=O)N[C@@H](C)C(=O)N[C@@H](CCCCN)C(=O)N[C@@H](Cc1ccc(O)cc1)C(=O)N[C@@H](CC(C)C)C(=O)N[C@@H](CC(=O)O)C(=O)N[C@@H](CCC(N)=O)C(=O)N[C@@H](CCCNC(=N)N)C(=O)N[C@@H](CCCNC(=N)N)C(=O)N[C@@H](C)C(=O)N[C@@H](CCC(N)=O)C(=O)N[C@@H](CC(=O)O)C(=O)N[C@@H](Cc1ccccc1)C(=O)N[C@H](C(=O)N[C@@H](CCC(N)=O)C(=O)N[C@@H](Cc1c[nH]c2ccccc12)C(=O)N[C@@H](CC(C)C)C(=O)N[C@@H](CCSC)C(=O)N[C@@H](CC(N)=O)C(=O)N[C@H](C(N)=O)[C@@H](C)O)C(C)C", "note": "[Analog 4, des-His^1 Nle^9 Ala^11 Gln^16] (HELM PEPTIDE1{S.Q.G.T.F.T.S.[Nle].Y.A.K.Y.L.D.Q.R.R.A.Q.D.F.V.Q.W.L.M.N.T.[am]}$$$$V2.0)", "values": [{"measurement": "% Relative Activity", "setting": "[1]", "result": 0.0011, "unit": "%"}, {"measurement": "pA2", "setting": "[1]", "result": 8.4}]}
{"compound": "Nα-trinitrophenyl [12-homoarginine]glucagon", "values": [{"measurement": "binding to the glucagon receptor", "setting": "[2]", "result": "does bind to the glucagon receptor"}, {"measurement": "activation of adenylate cyclase", "setting": "[3]", "result": "without significant activation of adenylate cyclase"}]}
{"compound": "SQGTFTSEYAKYLDARRAQEFVQWLMNT-NH2 [Analog 5, des-His^1 Glu^9 Ala^11 Ala^16 Glu^21]", "values": [{"measurement": "% Relative Activity", "setting": "[1]", "result": 0.016, "unit": "%"}, {"measurement": "pA2", "setting": "[1]", "result": 8.5}]}
